Results published in the supplement of paper PMC10307832.

Legend:
Test in all cases: relative viability (nuclei count vs DMSO), 5 days (fraction); higher = more cells survive
[1] = compound: Nc1ccn([C@@H]2O[C@H](CO)[C@@H](O)C2(F)F)c(=O)n1 [Gemcitabine] + CC1(C)CCC(c2ccc(Cl)cc2)=C(CN2CCN(c3ccc(C(=O)NS(=O)(=O)c4ccc(N[C@H](CCN5CCOCC5)CSc5ccccc5)c(S(=O)(=O)C(F)(F)F)c4)cc3)CC2)C1 [Navitoclax] (partner 0.5 µM)
Procedure, shortened: (§1)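 Each reported value is a median over duplicate plates. It expresses relative viability: treated-well nuclei count divided by vehicle-well nuclei count. Lung cancer cell lines in 1536-well plates were dosed by pin tool a day after seeding, alone with one drug or with a fixed anchor-drug dose plus five library-drug doses (not always all listed) in √10 steps, and nuclei were counted after 5 days.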

[2] = compound: Nc1ccn([C@@H]2O[C@H](CO)[C@@H](O)C2(F)F)c(=O)n1 [Gemcitabine] + C[C@@H](Oc1cc(-c2cnn(C3CCNCC3)c2)cnc1N)c1c(Cl)ccc(F)c1Cl [Crizotinib] (partner 1 µM)
Procedure, shortened: as §1

[3] = compound: Nc1ccn([C@@H]2O[C@H](CO)[C@@H](O)C2(F)F)c(=O)n1 [Gemcitabine] + Cc1nc(Nc2ncc(C(=O)Nc3c(C)cccc3Cl)s2)cc(N2CCN(CCO)CC2)n1 [Dasatinib] (partner 0.075 µM)
Procedure, shortened: as §1

[4] = compound: Nc1ccn([C@@H]2O[C@H](CO)[C@@H](O)C2(F)F)c(=O)n1 [Gemcitabine] + O=C(CCCCCCC(=O)Nc1ccccc1)NO [Vorinostat] (partner 1 µM)
Procedure, shortened: as §1

Cell Line | relative viability ([1]; first compound 0.001 µM) | relative viability ([1]; first compound 0.003162 µM) | relative viability ([1]; first compound 0.01 µM) | relative viability ([1]; first compound 0.03162 µM) | relative viability ([1]; first compound 0.1 µM) | relative viability ([2]; first compound 0.001 µM) | relative viability ([2]; first compound 0.003162 µM) | relative viability ([2]; first compound 0.01 µM) | relative viability ([2]; first compound 0.03162 µM) | relative viability ([2]; first compound 0.1 µM) | relative viability ([3]; first compound 0.001 µM) | relative viability ([3]; first compound 0.003162 µM) | relative viability ([3]; first compound 0.01 µM) | relative viability ([3]; first compound 0.03162 µM) | relative viability ([3]; first compound 0.1 µM) | relative viability ([4]; first compound 0.001 µM) | relative viability ([4]; first compound 0.003162 µM) | relative viability ([4]; first compound 0.01 µM) | relative viability ([4]; first compound 0.03162 µM) | relative viability ([4]; first compound 0.1 µM)
NCI-H1975 | 1.07 | 1.14 | 0.463 | 0.228 | 0.179 | 0.996 | 1.01 | 0.48 | 0.201 | 0.16 | 0.419 | 0.574 | 0.241 | 0.0982 | 0.103 | 0.741 | 0.714 | 0.372 | 0.18 | 0.186
UMC-11 | 0.376 | 0.309 | 0.291 | 0.21 | 0.118 | 0.746 | 0.574 | 0.598 | 0.549 | 0.233 | 0.464 | 0.516 | 0.415 | 0.368 | 0.223 | 0.339 | 0.505 | 0.425 | 0.256 | 0.152
A-427 | 0.918 | 0.907 | 0.719 | 0.189 | 0.124 | 0.984 | 0.764 | 0.503 | 0.124 | 0.106 | 0.67 | 0.629 | 0.183 | 0.126 | 0.109 | 0.826 | 0.857 | 0.671 | 0.321 | 0.284
LCLC-97TM1 | 0.379 | 0.182 | 0.0922 | 0.0774 | 0.106 | 0.297 | 0.179 | 0.0935 | 0.0797 | 0.12 | 0.819 | 0.803 | 0.429 | 0.159 | 0.106 | 0.51 | 0.314 | 0.149 | 0.0661 | 0.0642
HCC-15 | 0.718 | 0.702 | 0.69 | 0.441 | 0.0936 | 0.929 | 0.819 | 0.79 | 0.192 | 0.0758 | 0.589 | 0.666 | 0.561 | 0.0908 | 0.0718 | 0.908 | 0.815 | 0.739 | 0.247 | 0.109
NCI-H647 | 0.916 | 0.253 | 0.0668 | 0.0642 | 0.0514 | 1.09 | 0.195 | 0.0721 | 0.0642 | 0.0615 | 0.1 | 0.0588 | 0.0298 | 0.0257 | 0.0223 | 0.435 | 0.129 | 0.0559 | 0.0673 | 0.0443
SW 1573 | 1.18 | 0.986 | 0.0907 | 0.0747 | 0.0361 | 0.997 | 0.728 | 0.202 | 0.12 | 0.0565 | 0.481 | 0.258 | 0.0669 | 0.0389 | 0.0494 | 0.75 | 0.591 | 0.122 | 0.0661 | 0.0393
NCI-H1651 | 1.07 | 1.16 | 0.928 | 0.204 | 0.0844 | 0.913 | 0.855 | 0.85 | 0.346 | 0.138 | 0.412 | 0.495 | 0.257 | 0.0946 | 0.0687 | 0.555 | 0.537 | 0.548 | 0.301 | 0.115
